Several values for one entry are separate records, joined by “and”; a condition that tells them apart may be missing. Identical values can stand only once.
Key:
WT mGlu1 = molecular target: T1, WT mGlu1 (Rattus norvegicus, UniProt P23385); format: cell-based; also: test concentration or dose not given here
T1 construct: expressed in transfected cells; host or cells: HEK293

mGlu1 P58H/N264H mutant = molecular target: T2, mGlu1 P58H/N264H mutant (Rattus norvegicus, UniProt P23385, N264H/P58H); test: Fura-2 Ca2+ imaging in HEK293 cells expressing mGlu1 P58H/N264H; format: cell-based
T2 construct: expressed in transfected cells; host or cells: HEK293

mGlu1 A59H/N264H mutant = molecular target: T3, mGlu1 A59H/N264H mutant (Rattus norvegicus, UniProt P23385, A59H/N264H); test: Fura-2 Ca2+ imaging in HEK293 cells expressing mGlu1 A59H/N264H; format: cell-based
T3 construct: expressed in transfected cells; host or cells: HEK293

mGlu1 K61H/N264H mutant = molecular target: T4, mGlu1 K61H/N264H mutant (Rattus norvegicus, UniProt P23385, K61H/N264H); test: Fura-2 Ca2+ imaging in HEK293 cells expressing mGlu1 K61H/N264H; format: cell-based
T4 construct: expressed in transfected cells; host or cells: HEK293

mGlu1 P57H/N264H mutant = molecular target: T5, mGlu1 P57H/N264H mutant (Rattus norvegicus, UniProt P23385, N264H/P57H); test: Fura-2 Ca2+ imaging in HEK293 cells expressing mGlu1 P57H/N264H; format: cell-based
T5 construct: expressed in transfected cells; host or cells: HEK293

mGlu1 E60H/N264H mutant = molecular target: T6, mGlu1 E60H/N264H mutant (Rattus norvegicus, UniProt P23385, E60H/N264H); test: Fura-2 Ca2+ imaging in HEK293 cells expressing mGlu1 E60H/N264H; format: cell-based
T6 construct: expressed in transfected cells; host or cells: HEK293

[1] = system: HEK293 cells, vector control; test: Fura-2 Ca2+ imaging in HEK293 cells transfected with control vector (Vec); format: cell-based; conditions: single-cell values #1-#20; as to Ca2+ response of individual cells (source data Suppl Fig1), Vec: test concentration or dose not given here
[2] = system: mGlu1 construct not given; test: Fura-2 Ca2+ imaging in HEK293 cells, source data Suppl Fig1, left group (c0-c8); construct not given; format: cell-based, rat; conditions: single-cell values, cells #15-#20; left group of third block
Text: (§1) Supplement 41467_2022_30828_MOESM6_ESM.zip/Ojima et al_source data_Suppl Fig.xlsx, sheet "Suppl Fig1" | column: Glu; NiCl2; CuCl2; ZnCl2; CdCl2; Na2PdCl2; Pd(bpy)

[3] = system: HEK293 cells, vector control; test: Fura-2 Ca2+ imaging in HEK293 cells transfected with control vector (Vec); format: cell-based; conditions: Fig.1e; as to Ca2+ response of individual cells (source data Suppl Fig1), Vec: test concentration or dose not given here
Text: Supplement 41467_2022_30828_MOESM6_ESM.zip/Ojima et al_source data_Main Figure.xlsx, sheet "Fig.1e" | column: Vec

mGlu1 A59H/A265H mutant [4] = molecular target: T7, mGlu1 A59H/A265H mutant (Rattus norvegicus, UniProt P23385, A265H/A59H); test: Fura-2 Ca2+ imaging in HEK293 cells expressing mGlu1 A59H/A265H; format: cell-based; conditions: single-cell values
T7 construct: expressed in transfected cells; host or cells: HEK293

[5] = system: mGlu1 construct not given; test: Fura-2 Ca2+ imaging in HEK293 cells, source data Suppl Fig1, middle group (c9-c17); construct not given; format: cell-based, rat; conditions: single-cell values, cells #15-#20; middle group of third block
Text: as §1

mGlu1 A59H/A265H mutant [6] = molecular target: T7, mGlu1 A59H/A265H mutant; test: Fura-2 Ca2+ imaging in HEK293 cells expressing mGlu1 A59H/A265H; format: cell-based; conditions: Fig.1e
mGlu1 A59H/G266H mutant [7] = molecular target: T8, mGlu1 A59H/G266H mutant (Rattus norvegicus, UniProt P23385, A59H/G266H); test: Fura-2 Ca2+ imaging in HEK293 cells expressing mGlu1 A59H/G266H; format: cell-based; conditions: single-cell values; as to Ca2+ response (delta ratio), A59H/G266H: test concentration or dose not given here
T8 construct: expressed in transfected cells; host or cells: HEK293

[8] = system: mGlu1 construct not given; test: Fura-2 Ca2+ imaging in HEK293 cells, source data Suppl Fig1, right group (c18-c26); construct not given; format: cell-based, rat; conditions: single-cell values, cells #15-#20; right group of third block
Text: as §1

mGlu1 A59H/G266H mutant [9] = molecular target: T8, mGlu1 A59H/G266H mutant; test: Fura-2 Ca2+ imaging in HEK293 cells expressing mGlu1 A59H/G266H; format: cell-based; conditions: Fig.1e

T1 sequence (P23385 19-1199): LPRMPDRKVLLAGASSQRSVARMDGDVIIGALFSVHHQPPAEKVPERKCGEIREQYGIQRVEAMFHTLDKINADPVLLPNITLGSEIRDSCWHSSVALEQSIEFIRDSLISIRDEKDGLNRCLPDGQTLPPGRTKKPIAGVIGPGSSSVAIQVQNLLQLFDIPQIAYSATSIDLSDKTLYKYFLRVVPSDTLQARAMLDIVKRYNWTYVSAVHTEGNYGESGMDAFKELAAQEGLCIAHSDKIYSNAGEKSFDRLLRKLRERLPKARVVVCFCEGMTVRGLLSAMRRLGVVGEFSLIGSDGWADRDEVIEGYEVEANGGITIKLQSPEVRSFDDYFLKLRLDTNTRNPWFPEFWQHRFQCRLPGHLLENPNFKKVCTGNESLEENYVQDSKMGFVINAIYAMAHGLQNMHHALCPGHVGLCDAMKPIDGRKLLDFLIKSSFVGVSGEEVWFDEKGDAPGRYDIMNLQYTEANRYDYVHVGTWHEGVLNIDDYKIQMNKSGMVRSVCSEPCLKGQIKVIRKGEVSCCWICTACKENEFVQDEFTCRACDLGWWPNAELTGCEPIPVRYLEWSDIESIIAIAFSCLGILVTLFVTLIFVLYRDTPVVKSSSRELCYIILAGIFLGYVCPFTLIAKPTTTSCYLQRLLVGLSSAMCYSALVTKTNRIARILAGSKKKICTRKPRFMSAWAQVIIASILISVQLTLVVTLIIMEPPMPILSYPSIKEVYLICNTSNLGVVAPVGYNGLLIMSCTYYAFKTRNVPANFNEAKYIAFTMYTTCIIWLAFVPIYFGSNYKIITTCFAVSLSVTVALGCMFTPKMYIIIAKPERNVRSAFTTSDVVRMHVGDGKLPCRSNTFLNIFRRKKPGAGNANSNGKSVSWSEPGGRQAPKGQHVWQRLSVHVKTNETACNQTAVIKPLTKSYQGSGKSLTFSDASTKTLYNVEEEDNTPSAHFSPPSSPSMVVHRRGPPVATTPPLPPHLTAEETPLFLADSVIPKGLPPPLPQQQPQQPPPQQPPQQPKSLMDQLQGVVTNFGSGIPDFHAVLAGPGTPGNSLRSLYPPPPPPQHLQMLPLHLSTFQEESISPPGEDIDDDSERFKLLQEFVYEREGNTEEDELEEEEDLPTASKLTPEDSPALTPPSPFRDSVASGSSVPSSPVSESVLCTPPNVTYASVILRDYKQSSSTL
T8 sequence (P23385 19-1199 A59H/G266H): as the sequence (P23385 19-1199) above, with A41H, G248H counted along it
T6 sequence (P23385 19-1199 E60H/N264H): as the sequence (P23385 19-1199) above, with E42H, N246H counted along it
T2 sequence (P23385 19-1199 P58H/N264H): as the sequence (P23385 19-1199) above, with P40H, N246H counted along it
T3 sequence (P23385 19-1199 A59H/N264H): as the sequence (P23385 19-1199) above, with A41H, N246H counted along it
T5 sequence (P23385 19-1199 P57H/N264H): as the sequence (P23385 19-1199) above, with P39H, N246H counted along it
T7 sequence (P23385 19-1199 A59H/A265H): as the sequence (P23385 19-1199) above, with A41H, A247H counted along it
T4 sequence (P23385 19-1199 K61H/N264H): as the sequence (P23385 19-1199) above, with K43H, N246H counted along it

## [Cl][Ni][Cl] [NiCl2]
WT mGlu1; Fig.1e
  Ca2+ response (delta ratio), WT: 0.03319
WT mGlu1; single-cell values #1-#20, WT
  Ca2+ response of individual cells (source data Suppl Fig1), WT: -0.005477 and -0.01458 and 0.001892 and -0.01835 and 0.1195 and 0.01671 and 0.05379 and 0.4457 and 0.004608 and -0.002423 and 0.004238 and 0.01116 and 0.1174 and -0.002515 and -0.001223 and -0.001015 and -0.0129 and -0.004708 and 0.01682 and -0.06482
mGlu1 P58H/N264H mutant; Fig.1e
  Ca2+ response (delta ratio), P58H/N264H: 0.05353
mGlu1 P58H/N264H mutant; single-cell values #1-#20, P58H/N264H
  Ca2+ response of individual cells (source data Suppl Fig1), P58H/N264H: 0.03009 and 0.04043 and -0.04005 and 0.07079 and 0.04304 and 0.04053 and 0.04913 and 0.06845 and 0.2599 and -0.02289 and 0.03599 and 0.03797 and 0.05281 and 0.1306 and 0.05504 and 0.04257 and 0.06472 and 0.07143 and 0.03615 and 0.003946
mGlu1 A59H/N264H mutant; Fig.1e
  Ca2+ response (delta ratio), A59H/N264H: 0.05683
mGlu1 A59H/N264H mutant; single-cell values #1-#20, A59H/N264H
  Ca2+ response of individual cells (source data Suppl Fig1), A59H/N264H: 0.3729 and -0.001931 and -0.001046 and 0.01178 and 0.01916 and -0.01828 and -0.02652 and 0.02399 and 0.0008077 and 0.2216 and -0.004754 and -0.01916 and -0.02225 and 0.2474 and 0.3157 and 0.001138 and -0.0037 and -0.007646 and -0.0005385 and 0.0279
mGlu1 K61H/N264H mutant; Fig.1e
  Ca2+ response (delta ratio), K61H/N264H: -0.01365
mGlu1 K61H/N264H mutant; single-cell values, K61H/N264H
  Ca2+ response of individual cells (source data Suppl Fig1), K61H/N264H: -0.03782 and -0.01632 and -0.02464 and 0.009846 and -0.01781 and 0.02198 and -0.0009692 and 0.02142 and -0.009608 and -0.02934 and -0.05039 and -0.01796 and -0.007623 and -0.01945
mGlu1 P57H/N264H mutant; Fig.1e
  Ca2+ response (delta ratio), P57H/N264H: 0.01834
mGlu1 P57H/N264H mutant; single-cell values #1-#20, P57H/N264H
  Ca2+ response of individual cells (source data Suppl Fig1), P57H/N264H: -0.01177 and -0.0082 and 0.005215 and 0.04513 and 0.01995 and 0.003931 and -0.01436 and 0.02328 and -0.02887 and -0.004769 and -0.02686 and -0.008069 and 0.003369 and 0.01493 and -0.02254 and -0.001223 and 0.3415 and -0.007623 and 0.04519 and -0.0014
mGlu1 E60H/N264H mutant; Fig.1e
  Ca2+ response (delta ratio), E60H/N264H: -0.01792
mGlu1 E60H/N264H mutant; single-cell values #1-#20, E60H/N264H
  Ca2+ response of individual cells (source data Suppl Fig1), E60H/N264H: -0.0467 and -0.05411 and -0.02817 and -0.02148 and 0.004623 and 0.0091 and -0.02117 and -0.04309 and -0.01538 and -0.003069 and -0.02522 and -0.003569 and 0.01539 and -0.02995 and -0.01439 and -0.004777 and -0.04676 and -0.0003 and -0.01138
[1]
  Ca2+ response of individual cells (source data Suppl Fig1), Vec: -0.01071 and 0.01858 and -0.01644 and -0.01578 and -0.0028 and -0.01812 and -0.01767 and -0.01609 and -0.0009 and -0.0156 and -0.02858 and -0.009415 and -0.001254 and -0.01445 and -0.004377 and -0.001977 and -0.0008692 and 0.006415 and 0.01396 and 0.004169
[2]
  Ca2+ response of individual cells (source data, sheet Suppl Fig1): -0.01619 and -0.01292 and 0.01722 and -0.04921 and -0.009638 and -0.02348
[3]
  Ca2+ response (delta ratio), Vec: -0.006595
mGlu1 A59H/A265H mutant [4]
  Ca2+ response of individual cells (source data Suppl Fig1), A59H/A265H: -0.0004462 and -0.005215 and 0.006554 and -0.007815 and 0.01005 and -0.006508 and -0.02278 and 0.001031 and 0.01621 and 0.004377 and -0.02859 and 0.008423 and 0.09357 and 0.07873
[5]
  Ca2+ response of individual cells (source data, sheet Suppl Fig1): 0.03642 and 0.005192 and 0.02775 and -0.01323 and -0.002362 and 0.009469
mGlu1 A59H/A265H mutant [6]
  Ca2+ response (delta ratio), A59H/A265H: 0.01054
mGlu1 A59H/G266H mutant [7]
  Ca2+ response of individual cells (source data Suppl Fig1), A59H/G266H: -0.007338 and -0.001015 and -0.03149 and 0.03385 and 0.01174 and 0.008792 and -0.03335 and -0.003362 and 0.01265 and 0.02216 and 0.003731 and -0.008569 and 0.01177 and -0.002115
[8]
  Ca2+ response of individual cells (source data, sheet Suppl Fig1): 0.03285 and -0.01932 and -0.04406 and 0.003838 and -0.02115 and 0.02962
mGlu1 A59H/G266H mutant [9]
  Ca2+ response (delta ratio), A59H/G266H: -3.81E-05

From publication PMC9203742 (Nature Communications, 2022)
